We go through one compound from patent US12371460B2, “Glycan-binding proteins and related compositions and methods” (priority 2019, dated 2025).

This assay has as its target Sulfolobus solfataricus Sso7d (rcSso7d, SEQ ID NO: 1) variant clone E, SEQ ID NO: 398 (Saccharolobus solfataricus, UniProt P61991, A45G/K22H/K28Q/K40A/K7T/K9Q/M29W/R43W/S31W/T33I/T41K/V26W/W24R). In words: biolayer interferometry, clone E immobilized on Ni-NTA tip. Type of assay: binding. The settings on record: 1 uM solution of the sugar; FIG. 2E. From the text:
The traces show an increase in nm as sugar starts binding to protein on the tip, then a decrease in nm as the tip is moved from the sugar solution to buffer only.
(BLI is a label-free optical method that tracks binding on a fibre tip over time.)

Each structure is given as a SMILES string.

Sulfolobus solfataricus Sso7d (rcSso7d, SEQ ID NO: 1) variant clone E, SEQ ID NO: 398, sequence (P61991 other isoform, or with tags, fused parts or gaps with the stated changes): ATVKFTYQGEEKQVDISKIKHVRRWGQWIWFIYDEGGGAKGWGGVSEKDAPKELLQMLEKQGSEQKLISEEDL

Regarding `CC(=O)N[C@@H]1[C@@H](O[C@@H]2O[C@H](CO)[C@H](O)[C@H](O)[C@H]2O)[C@@H](O)[C@@H](CO)O[C@@H]1O` [TF antigen, Galβ1-3GalNAcα], the “binding (biolayer interferometry traces)” value was “bound”.
